# Assay results published in US20230340498A1, “COMPOSITIONS AND METHODS FOR INDUCIBLE ALTERNATIVE SPLICING REGULATION OF GENE EXPRESSION” (The Children's Hospital of Philadelphia, priority 2020, published 2023).
# Test system: HTT
# Assay: X^on-SaCas9 regulated HTT exon 1 editing in HEK293 cells
# Format: cell-based, Human
# Procedure: Cell culture, transfection, and LMI070/RG7800 treatment. Human embryonic kidney (HEK293) cells (obtained from CHOP Research Vector Core stock) were maintained in DMEM media containing 10% Fetal Bovine Serum (FBS), 1% L-Glutamine and 1% penicillin/streptomycin at 37° C. with 5% CO2. Cells were cultured in 24 well plates and transfected at 80-90% confluence using Lipofectamine 2000 transfection reagent, according to the manufacturer’s protocol. For all experiments, 4 hours after plasmid transfection, cells were treated with LMI070 (MedChemExpress, HY-19620, suspended in DMSO) or RG7800 (MedChemExpress, HY-101792A, suspended in H2O) at the indicated concentrations. Cells were tested for mycoplasma by Research Vector Core. None of the cells used in the study were listed in ICLAC database of commonly misidentified cell lines.
# RNA extraction, RT-PCR, and Splicing assays. Total RNA was extracted using Trizol (Life Technologies) according to the manufacturer’s protocol, with the exception of 1 µL Glycoblue (Life Technologies) in addition to the aqueous phase on the isopropanol precipitation step and a single wash with cold 70% ethanol. To determine HTT expression levels after transfection, RNA samples were quantified by spectrophotometry and subsequently cDNAs generated from […] of total RNA with random hexamers (TaqMan RT reagents, Applied Biosystems). To determine human HTT expression levels in HEK293 cells, we used TaqMan probes for human HTT and glyceraldehyde 3-phosphate dehydrogenase (GAPDH) mRNAs obtained from Applied Biosystems. Relative HTT gene expression was determined using the ddCt method. […] Splicing was determined by PCR using the Phusion High-Fidelity polymerase (Thermofisher) and PCR products separated on a 2.5% agarose gel pre-stained with EtBr and spliced-in and spliced-out band densitometry performed using with the ChemiDoc Imaging System (BioRad) and Image Lab analysis software. Splicing induction from mouse tissues was determined using two custom TaqMan assays designed to determine total or LMI070-spliced in mRNA transcripts. The percentage of induction was determined by dividing the average Ct novel exon and average Ct Total, relative to control animals injected with AAV virus plus vehicle.
# Western Blots. HEK293 cells were rinsed and lysed with Passive Lysis Buffer (PBL, Promega), protein concentrations determined using the DC protein assay (Bio-Rad), and 10-20 µg of protein loaded on a 3%-8% NuPAGE Tris-Acetate Gel in tris-acetate buffer (Novex Life Technologies) or a 4-12% NuPAGE TrisBis NuPAGE gels in MES buffer (Novex Life Technologies) to determine HTT, SaCas9, or eGFP protein levels, respectively, with β-catenin as loading control. […]
smiles,measurement,setting,value
"CC1(C)CC(Oc2ccc(-c3ccc(-c4cn[nH]c4)cc3O)nn2)CC(C)(C)N1 [LMI070, 5-(1H-Pyrazol-4-yl)-2-(6-((2,2,6,6-tetramethylpiperidin-4-yl)oxy)pyridazin-3-yl)phenol]",SaCas9 expression from X^on switch,"HEK293 cells, varying doses of LMI070, western blot 24 h",clear dose response
same,HTT exon 1 editing versus constitutively expressed SaCas9,"X^on-SaCas9 plus gRNAs, 100 nM LMI070",equivalent editing
same,reduction of HTT transcripts,"X^on-SaCas9 plus gRNAs, upon LMI070 treatment, RT-qPCR",50%
same,HTT protein levels,"X^on-SaCas9 plus gRNAs, upon LMI070 treatment, western blot",similarly reduced
